Measurements taken from patent publication EP0412158A1, “ONCOSTATIC DRUG” (priority 1987, dated 1988).

What was measured:
[1] = tested on: methyl cholanthrene A tumor; test: Methyl cholanthrene A tumor, evaluation by size of tumor (Examples 31 to 33); format: in vivo, female BALB/C mice
Method: (§1) A heteropoly acid salt, Na5[IM06O24]•34H2O (Compound M), and other compounds (Compounds N and O ) were severally dissolved in distilled water to obtain aqueous solutions containing the salts in a fixed concentration of 10 mg/ml. To female BALB/C mice (five weeks old) to which methyl cholanthrene A tumor had been transplanted, the aqueous solutions were administered to test the compounds for antineoplastic activity. To be specific, the methyl cholanthrene A was transplanted to the mice at a ratio of 1.0 x 10^5 cells per mouse and the aqueous solutions were administered ([…]) for 9 consecutive days by intraperitoneal injection. On elapse of 14 and 21 days after the stop of the administration, the sizes of tumors in the mice were measured. For comparison, mice to which no aqueous solution was administered and mice to which aminonitrosourea was administered were similarly tested.

[2] = as above; format: in vivo, female BALB/C mice; conditions: mouse, in vivo, ip; read-out: largest allowable dose
Method: as §1

[3] = tested on: methyl cholanthrene A tumor; test: Methyl cholanthrene A tumor, evaluation by weight of tumor (Examples 13 to 16); format: in vivo, female BALB/C mice; conditions: 5 mg/kg
MM-46 breast cancer [4] = test: MM-46 breast cancer, evaluation by size of tumor (Examples 21 to 24); format: in vivo, female C3H/He mice; conditions: 5 mg/kg
[5] = as above; format: in vivo, female C3H/He mice; conditions: mouse, in vivo, ip; read-out: largest allowable dose
[6] = tested on: methyl cholanthrene A tumor; test: Antineoplastic activity against transplanted methyl cholanthrene A tumor, evaluation by size of tumor (Examples 1 to 6); format: in vivo, female BALB/C mice; conditions: 5 mg/kg, ip×9; for Change in body weight: body weight 13 days after transplantation; for T/control: tumor weight
Method: (§2) By dissolving alkylammonium salt of polymolybdic acid [NH3C3H7(iso)]s [Mo7O24] • 3H2O (Compound A) and other compounds (Compounds B to D) severally in distilled water, aqueous solutions containing the compounds in a fixed concentration of 10 mg/ml were obtained. These aqueous solutions were administered to female BALB/C mice (five weeks old) to which methyl cholanthrene A tumor had been transplanted to test the compounds for antineoplastic activity. To be specific, methyl cholanthrene A was transplanted to the mice in a ratio of 1.0 x 10^5 cells per mouse and the aqueous solutions were continuously administered to the mice by intraperitoneal injection ([…]) for nine days. On elapse of 14 days following the start of the administration, the tumors in the mice were measured. For comparison, mice to which no antineoplastic .drug was administered and mice to which aminonitroso urea was administered were tested by following the procedure described above.

[7] = as above; format: in vivo, female BALB/C mice; conditions: mouse, in vivo, ip
Method: as §2

methyl cholanthrene A [8] = test: Methyl cholanthrene A tumor, evaluation by elongation of period of survival (Examples 17 to 20); format: in vivo, female BALB/C mice; conditions: 5 mg/kg ×9
MM-46 breast cancer [9] = format: in vivo, female C3H/He mice; conditions: 5 mg/kg, ip × 9
methyl cholanthrene A [10] = test: Methyl cholanthrene A tumor, evaluation by elongation of period of survival (Examples 31, 34 and 35); format: in vivo, female BALB/C mice
Method: The active compounds, M to 0, mentioned above were severally dissolved in distilled water to obtain aqueous solutions containing the compounds in a fixed concentration of 10 mg/ml. To be specific, to female BALB/C mice (five weeks old) to which methyl cholanthrene A had been transplanted in a ratio of 1.0 x 10^5 cells per mouse, […] for 9 consecutive days to determine the mice's periods of survival. For comparison, mice to which no aqueous solution was administered and mice to which aminonitrosourea was administered were similarly tested.

methyl cholanthrene A [11] = test: Methyl cholanthrene A tumor, evaluation by extension of period of survival (Examples 7 to 11); format: in vivo, female BALB/C mice; conditions: 5 mg/kg; for Average number of days of survival / Number of toxically killed mice/total number of mice / T/control: ip×9; for Change in body weight: ip×9, D1~D9; for T/control: days of survival
Method: The aforementioned compounds, A to D, were severally dissolved in distilled water to obtain aqueous solutions containing the compounds in a fixed concentration of 10 mg/ml. To the female BALB/C mice (five weeks old) to which methyl cholanthrene A had been transplanted in a ratio of 1.0 x 10^5 cells per mouse, […] to determine the mices' periods of survival. For comparison, mice to which no antineoplastic drug was administered and mice to which aminonitroso urea was administered were similarly tested.

[12] = Methyl cholanthrene A tumor, evaluation by weight of tumor (Examples 13 to 16); format: in vivo, female BALB/C mice; conditions: mouse, in vivo, ip; read-out: largest allowable dose
Method: Compound E, an alkali metal salt of polymolybdic acid (Example 13), and other compounds (Compounds F to H) mentioned above were severally dissolved in distilled water to obtain aqueous solutions containing the compounds in a fixed concentration of 10 mg/ml. These aqueous solutions were administered to female BALB/C mice (five weeks old) to which methyl cholanthrene A tumor had been transplanted to test the compounds for antineoplastic activity. To be morespecific, the methyl cholanthrene A was transplanted to the mice in a ratio of 1.0 x 10^5 cells per mouse and the aqueous solution was continuously administered (at a dose of 100 mg/kg of body weight) for nine days by intraperitoneal injection. On elapse of 14 days after the stop of the administration, the tumors in the mice were weighed. For comparison, mice to which the aqeuous solution was not administered and the mice to which aminonitrosourea was administered were similarly tested.

Cc1ncc(CNC(=O)N(CCCl)N=O)c(N)n1 [reference compound]
Average weight of tumor after elapse of 14 days ± SE ([1]; 2.5 mg/kg, ip × 9 (D1~D9)): 347.9 ± 63.8 mg
T/C ([1]; 2.5 mg/kg, ip × 9 (D1~D9), tumor weight after 14 days): 0.405
T/C ([1]; 7.5 mg/kg, ip × 9, tumor weight after 14 days): 0.367
T/C ([1]; 7.5 mg/kg, ip × 9, tumor weight after 21 days): 0.444
MTD [2]: 7.5 mg/kg
Average weight of tumor ([3]; ip × 9): 1151.1 ± 162.7 mg
Number of tumorless mice /total number of mice ([3]; ip × 9): 0/8
T/control ([3]; ip×9, tumor weight): 0.447
Change in body weight ([3]; ip×9 D1-D9, body weight 13 days after tumor transplantation): +1,58 g
Average weight of tumor (MM-46 breast cancer [4]; ip × 9): 1364.3 ± 200.0 mg
Number of tumorless mice /total number of mice (MM-46 breast cancer [4]; ip × 9): 0/8
T/control (MM-46 breast cancer [4]; ip×9, tumor weight): 0.473
MTD [5]: 5 mg/kg
Average weight of tumor ([6]; No. 1): 1151.1 ± 162.7 mg
Number of tumorless mice /total number of mice ([6]; No. 1): 0/8
Change in body weight ([6]; No. 1): +1,58 (D1~D9) g
T/control ([6]; No. 1): 0.430
Average weight of tumor ([6]; No. 3): 1151.1 ± 162.7 mg
Number of tumorless mice /total number of mice ([6]; No. 3): 0/8
Change in body weight ([6]; No. 3): +1,58 (D1~D9) g
T/control ([6]; No. 3): 0.430
MTD [7]: 5 mg/kg
Average number of days of survival (methyl cholanthrene A [8]): 28.0±3.1(9) days
Number of toxically killed mice/total number of mice (methyl cholanthrene A [8]): 0/8
Ratio of prolonging life (methyl cholanthrene A [8]): 24.4%
Average number of days of survival (MM-46 breast cancer [9]): 29.1±2.1(8) days
Average weight of tumor after 14 days (MM-46 breast cancer [9]): 1364.3 ± 200.0 mg
Ratio of elongation of life (5) (MM-46 breast cancer [9]): 76.4
Average number of days of survival ±SE (methyl cholanthrene A [10]; 2.5 mg/kg, ip × 9 (D1~D9)): 31.13±1.14(8) days
ILS (methyl cholanthrene A [10]; 2.5 mg/kg, ip × 9 (D1~D9)): 18%
Average number of days of survival ±SE (methyl cholanthrene A [10]; 7.5 mg/kg, ip × 9): 36.67±1.07(9) days
ILS (methyl cholanthrene A [10]; 7.5 mg/kg, ip × 9): 47.3%
Number of mice of no tumor/total number of mice (methyl cholanthrene A [10]; 7.5 mg/kg, ip × 9, observed 60 days after transplantation): 0/9
Average number of days of survival (methyl cholanthrene A [11]; No. 1): 35.8 ± 1.4 days
Number of toxically killed mice/total number of mice (methyl cholanthrene A [11]; No. 1): 0/8
Change in body weight (methyl cholanthrene A [11]; No. 1): +1.58 g
T/control (methyl cholanthrene A [11]; No. 1): 138.0
Average number of days of survival (methyl cholanthrene A [11]; No. 2): 28.0±3.1(9) days
Number of toxically killed mice/total number of mice (methyl cholanthrene A [11]; No. 2): 0/8
Change in body weight (methyl cholanthrene A [11]; No. 2): +1.58 g
T/control (methyl cholanthrene A [11]; No. 2): 124.5
MTD [12]: 5 mg/kg
